Assay results taken from US20040097594A1 (priority 1998, published 2004).
pIC50, pKi: −log10 of the molar value. Like-named read-outs stand apart in the source and are kept apart here.

What was measured:
HIV-1 protease = HIV-1 protease (Human immunodeficiency virus type 1 group M subtype B, UniProt P04585); assay: biochemical
HIV-1 (strain IIIB) = assay: microbe, parasite or virus in culture; assay type: cell-based; details: lower line of each compound's entry, read-out: IC50 (MT-4 cells)
[1] = HIV-1 protease, upper line of each compound's entry, read-out: Ki (enzyme)
[2] = Human immunodeficiency virus 1, 120 h, MT4 cells infected with HIV-1 strain IIIB, 5 days
[3] = Human immunodeficiency virus 1, IIIB, MT4, 120 h, […]
[4] = MT4 cells infected with HIV-1 strain IIIB, 5 days

| Structure (SMILES) | pKi (HIV-1 protease; [1]) | further results |
| --- | --- | --- |
| CCC(CC)ON(C[C@@H](O)[C@H](Cc1ccccc1)NC(=O)O[C@H]1CO[C@H]2OCC[C@H]21)S(=O)(=O)c1ccc2c(c1)OCO2 [Example 162, (3R,3aS,6aR)hexahydrofuro[2,3-b]furan-3-yl(1S,2R)-3-[(1,3-benzodioxol-5-ylsulfonyl)(1-ethylpropoxy)amino]-1-benzyl-2-hydroxypropylcarbamate] | > 9.00 | pIC50 (HIV-1 (strain IIIB); [2]): ≥ 7.00 |
| COc1ccc(S(=O)(=O)N(C[C@@H](O)[C@H](Cc2ccccc2)NC(=O)OC(C)(C)C)OC2CCOCC2)cc1 [Compound 18, tert-butyl N-(1S,2R)-1-benzyl-2-hydroxy-3-[[(4-methoxyphenyl)sulfonyl](tetrahydro-2H-pyran-4-yloxy)amino]propylcarbamate] | 8.00 to 9.00 | pIC50 (HIV-1 (strain IIIB); [2]): < 6.00 |
| COC(=O)Nc1nc2cc(S(=O)(=O)N(C[C@@H](O)[C@H](Cc3ccccc3)NC(=O)OC3COCOC3)OC3CCCC3)ccc2[nH]1 [Compound 55, 1,3-Dioxan-5-yl N-(1S,2R)-1-benzyl-3-[(cyclopentyloxy)(2-{(methoxycarbonyl)amino]-1H-benzimidazol-5-ylsulfonyl)amino]-2-hydroxypropylcarbamate] | > 9.00 | pIC50 (HIV-1 (strain IIIB); [2]): ≥ 7.00 |
| CNc1cccc(S(=O)(=O)N(C[C@@H](OP(=O)(O)O)[C@H](Cc2ccccc2)NC(=O)O[C@H]2CO[C@H]3OCC[C@H]32)OC2CCCC2)c1 [Compound 119, Phosphate ester of (3R,3aS,6aR)hexahydrofuro[2,3-b]furan-3-yl N-(1S,2R)-3-[[(3-N-methylaminophenyl)sulfonyl](cyclopentyloxy)amino]-1-benzyl-2-hydroxypropylcarbamate] | < 7.00 | pIC50 (HIV-1 (strain IIIB); [2]): < 6.00 |
| NC(=O)COc1cccc(S(=O)(=O)N(C[C@@H](O)[C@H](Cc2ccccc2)NC(=O)OC2CO[C@H]3OCC[C@@H]23)OC2CCCC2)c1 (stereo partly drawn) [Compound 136, (3R,3aS,6aR)hexahydrofuro[2,3-b]furan-3-yl N-(1S,2R)-3-[[3-(2-amino-2-oxoethoxy)phenyl]sulfonyl(cyclopentyloxy)amino]-1-benzyl-2-hydroxypropylcarbamate] | > 9.00 | pIC50 (HIV-1 (strain IIIB); [3]): ≥ 7.00 |
| O=C(N[C@@H](Cc1ccccc1)[C@H](O)CN(OC1CCCC1)S(=O)(=O)c1cccc(OCCN2CCOCC2)c1)O[C@H]1CO[C@H]2OCC[C@H]21 [Compound 99, (3R,3aS,6aR)hexahydrofuro[2,3-b]furan-3-yl N-[(1S, 2R)-1-benzyl-3-((cyclopentyloxy)[3-(2-morpholinoethoxy)phenyl]sulfonylamino)-2-hydroxypropyl]carbamate] | > 9.00 |  |
| CC(C)Oc1ccc(S(=O)(=O)N(C[C@@H](O)[C@H](Cc2ccccc2)NC(=O)OC2CO[C@H]3OCC[C@@H]23)OC2CCCC2)cc1 (stereo partly drawn) [Compound 141, (3R,3aS,6aR)hexahydrofuro[2,3-b]furan-3-yl N-((1S,2R)-1-benzyl-3-(cyclopentyloxy)[(4-isopropoxyphenyl)sulfonyl]amino-2-hydroxypropyl)carbamate] | > 9.00 | pIC50 (HIV-1 (strain IIIB); [3]): < 6.00 |
| O=C(N[C@@H](Cc1ccccc1)[C@H](O)CC(OC1CCCC1)S(=O)(=O)c1ccc2nccnc2c1)OC1CCOC1 (stereo in doubt) [Compound 110, (3S)tetrahydro-3-furanyl N-[(1S,2R)-1-benzyl-4-(cyclopentyloxy)-2-hydroxy-4-(6-quinoxalinylsulfonyl)butyl]carbamate] | > 9.00 | pIC50 (HIV-1 (strain IIIB); [2]): 6.30 to 7.00 |
| Nc1ccc(S(=O)(=O)N(CC(O)C(Cc2ccccc2)NC(=O)OC2COC3OCCC23)OC2CCCC2)cc1 [Example 172, (3S,3aR,6aS)hexahydrofuro[2,3-b]furan-3-yl N-(1S,2R)-3-[[(4-aminophenyl)sulfonyl](cyclopentyloxy)amino]-1-benzyl-2-hydroxypropyl carbamate] |  | pIC50 (HIV-1 (strain IIIB); [4]): ≥ 7.00 |
| O=C(N[C@@H](Cc1ccccc1)[C@H](O)CN(OC1CCCC1)S(=O)(=O)c1ccc2c(c1)OCCO2)OC1CO[C@H]2OCC[C@@H]12 (stereo partly drawn) [Compound 139, (3R,3aS,6aR)hexahydrofuro[2,3-b]furan-3-yl N-(1S,2R)-1-benzyl-3-[(cyclopentyloxy)(2,3-dihydro-1,4-benzodioxin-6-ylsulfonyl)amino]-2-hydroxypropylcarbamate] |  | pKi (HIV-1 protease): > 9.00; pIC50 (HIV-1 (strain IIIB); [2]): ≥ 7.00 |
| O=C(N[C@@H](Cc1ccccc1)[C@H](O)CN(OC1CCCC1)S(=O)(=O)c1ccc(OCCO)cc1)O[C@H]1CO[C@H]2OCC[C@H]21 [Compound 42, (3R,3aS,6aR)hexahydrofuro[2,3-b]furan-3-yl N-[(1S,2R)-1-benzyl-3-((cyclopentyloxy)[4-(2-hydroxyethoxy)phenyl]sulfonylamino)-2-hydroxypropyl]carbamate] | > 9.00 |  |
| CN(C)c1cccc(S(=O)(=O)N(CC(O)C(Cc2ccccc2)NC(=O)OC2COC3OCCC23)OC2CCCC2)c1 [Compound 43, (3R,3aS,6aR)hexahydrofuro[2,3-b]furan-3-yl N-(1S,2R)-3-[[(3-N,N-dimethylaminophenyl)sulfonyl)(cyclopentyloxy)amino)-1-benzyl-2-hydroxypropylcarbamate] | > 9.00 |  |
| O=C(N[C@@H](Cc1ccccc1)[C@H](O)CN(OC1CCCC1)S(=O)(=O)c1ccc2[nH]nnc2c1)OC1COCOC1 [Compound 92, 1,3-Dioxan-5-yl N-(1S,2R)-1-benzyl-3-[(cyclopentyloxy)(benzotriazole-5-ylsulfonyl)amino]-2-hydroxypropylcarbamate] | > 9.00 |  |
| O=C(N[C@@H](Cc1ccccc1)[C@H](O)CN(OC1CCCC1)S(=O)(=O)c1ccc(O)cc1)O[C@H]1CO[C@H]2OCC[C@H]21 [Compound 41, (3R,3aS,6aR)hexahydrofuro[2,3-b]furan-3-yl N-((1S,2R)-1-benzyl-3-(cyclopentyloxy)[(4-hydroxyphenyl)sulfonyl]amino-2-hydroxypropyl)carbamate] |  | pIC50 (HIV-1 (strain IIIB); […]): ≥ 7.00 |
| COC(=O)CC(=O)Nc1nc2cc(S(=O)(=O)N(C[C@@H](O)[C@H](Cc3ccccc3)NC(=O)OC(C)(C)C)OC3CCCC3)ccc2[nH]1 [Compound 13, Tert-butyl N-(1S,2R)-1-benzyl-3-[(cyclopentyloxy)(2-[(methyl3-oxopropionate)amino]-1H-benzimidazol-5-ylsulfonyl)amino]-2-hydroxypropylcarbamate] | 7.00 to 8.00 |  |
| CC(C)ON(C[C@@H](O)[C@H](Cc1ccccc1)NC(=O)O[C@H]1CCOC1)S(=O)(=O)c1ccc2[nH]cnc2c1 [Compound 63, (3S)tetrahydro-3-furanyl N-(1S,2R)-3-[(1H-1,3-benzimidazol-5-ylsulfonyl)(isopropoxy)amino]-1-benzyl-2-hydroxypropylcarbamate] | 8.00 to 9.00 |  |
| COc1ccc(S(=O)(=O)N(C[C@@H](O)[C@H](Cc2ccccc2)NC(=O)OC(C)(C)C)OC(C)CCC#N)cc1 (stereo partly shown) [Compound 152, tert-butyl 1-benzyl-3-{(3-cyano-1-methylpropoxy)[(4-methoxyphenyl)sulfonyl]amino}-2-hydroxypropylcarbamate] |  | pIC50 (HIV-1 (strain IIIB); [4]): 6.00 to 6.30 |
| CS(=O)(=O)Nc1nc2cc(S(=O)(=O)N(C[C@@H](O)[C@H](Cc3ccccc3)NC(=O)OC3COCOC3)OC3CCCC3)ccc2[nH]1 [Compound 132, 1,3-Dioxan-5-yl-N-((1S,2R)-1-benzyl-3-(cyclopentyloxy)(2-[(methylsulfonyl)amino)benzimidazol-5-ylsulfonyl)amino-2-hydroxypropyl)carbamate] |  | pIC50 (HIV-1 (strain IIIB); [4]): ≥ 7.00 |
| CC(=O)NCCNc1cccc(S(=O)(=O)N(CC(O)C(Cc2ccccc2)NC(=O)OC2COC3OCCC23)OC2CCCC2)c1 [Compound 84, (3R,3aS,6aR)hexahydrofuro[2,3-b]furan-3-yl N-(1S,2R)-3-[[(3-[2-(acetylamino)ethyl]aminophenyl)sulfonyl](cyclopentyloxy)amino]-1-benzyl-2-hydroxypropylcarbamate and (3S,3aR,6aS)hexahydrofuro[2,3-b]furan-3-yl N-(1S,2R)-3-[[(3-[2-(acetylamino)ethyl]aminophenyl)sulfonyl](cyclopentyloxy)amino]-1-benzyl-2-hydroxypropylcarbamate] | > 9.00 |  |
| O=C(N[C@@H](Cc1ccccc1)[C@H](O)CN(OC1CCCC1)S(=O)(=O)c1ccc(OCCN2CCOCC2)cc1)O[C@H]1CO[C@H]2OCC[C@H]21 [Compound 98, (3R,3aS,6aR)hexahydrofuro[2,3-b]furan-3-yl N-[(1S,2R)-1-benzyl-3-((cyclopentyloxy)[4-(2-morpholinoethoxy)phenyl]sulfonylamino)-2-hydroxypropyl]carbamate] | > 9.00 |  |
| COc1cc(C(=O)Nc2nc3cc(S(=O)(=O)N(C[C@@H](O)[C@H](Cc4ccccc4)NC(=O)OC(C)(C)C)OC4CCCC4)ccc3[nH]2)cc(OC)c1OC [Compound 12, Tert-butyl N-(1S,2R)-1-benzyl-3-[(cyclopentyloxy)(2-[(3,4,5-trimethoxyphenyl-carbonyl)amino]-1H-benzimidazol-5-ylsulfonyl)amino]-2-hydroxypropylcarbamate] | < 8.00 |  |
| O=C(NC(Cc1ccccc1)C(O)CN(OC1CCCC1)S(=O)(=O)c1ccc2[nH]nnc2c1)OC1COC2OCCC12 [Compound 91, (3aS,6aR)Hexahydrofuro[2,3-b]furan-3-yl N-(1S,2R)-1-benzyl-3-[(cyclopentyloxy)(benzotriazole-5-ylsulfonyl)amino]-2-hydroxypropylcarbamate] | > 9.00 |  |
| NC(=O)CNc1cccc(S(=O)(=O)N(CC(O)C(Cc2ccccc2)NC(=O)OC2COC3OCCC23)OC2CCCC2)c1 [Compound 85, (3R,3aS,6aR)hexahydrofuro[2,3-b]furan-3-yl N-(1S,2R)-3-[(3-[(2-amino-2-oxoethyl)amino]phenylsulfonyl)(cyclopentyloxy)amino]-1-benzyl-2-hydroxypropylcarbamate and (3S,3aR,6aS)hexahydrofuro[2,3-b]furan-3-yl N-(1S,2R)-3-[(3[(2-amino-2-oxoethyl)amino]phenylsulfonyl) (cyclopentyloxy)amino]-1-benzyl-2-hydroxypropylcarbamate] | > 9.00 |  |
